target: T1, androgen receptor (AR-LBD) (Rattus norvegicus, UniProt P15207); assay: Evaluation of androgen receptor affinity (PolarScreen Androgen Receptor Competitor Assay Kit, Red; fluorescence polarization); settings: 22° C. for 5 hours, relative to binding rate of 1 μM DHT, read-out: AR affinity (pEC50) (converted)
T1 construct: 5 μL of 2×AR-LBD/Fluoromone AL Red Complex contained in the kit; purchased Invitrogen
T1 sequence (P15207 651-882 limits assumed): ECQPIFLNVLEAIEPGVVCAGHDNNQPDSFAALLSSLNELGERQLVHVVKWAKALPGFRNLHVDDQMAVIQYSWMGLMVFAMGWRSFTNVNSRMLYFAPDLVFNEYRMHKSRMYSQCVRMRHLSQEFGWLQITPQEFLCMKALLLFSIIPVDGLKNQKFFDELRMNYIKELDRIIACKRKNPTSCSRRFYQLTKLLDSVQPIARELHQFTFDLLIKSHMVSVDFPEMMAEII
In short: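 Duplicate wells; compound plus AR-LBD tracer complex incubated 22° C for 5 h, then FP measured. Effect compared with 1 μM DHT; 50%-effect concentration expressed as pEC50.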

SMILES	EC50 [µM]
Cc1ccc(CN(c2ccc(C#N)cc2)c2nc(C(=O)NS(C)(=O)=O)c(Br)s2)cc1 [Example 246, 5-bromo-2-[4-cyano-N-(p-tolylmethyl)anilino]-N-methylsulfonyl-thiazole-4-carboxamide]	0.0398
COc1ccccc1CN(c1ccc(C#N)cc1)c1nc(C(=O)NS(C)(=O)=O)c(Br)s1 [Example 249, 5-bromo-2-[4-cyano-N-[(2-methoxyphenyl)methyl]anilino]-N-methylsulfonyl-thiazole-4-carboxamide]	0.1
COc1ccc(CN(c2ccc(C#N)cc2)c2nc(C(=O)NS(C)(=O)=O)c(Br)s2)cc1 [Example 250, 5-bromo-2-[4-cyano-N-[(4-methoxyphenyl)methyl]anilino]-N-methylsulfonyl-thiazole-4-carboxamide]	0.0631
Cc1ccccc1CN(c1ccc(C#N)cc1)c1nc(C(=O)NS(C)(=O)=O)c(Cl)s1 [Example 259, 5-chloro-2-[4-cyano-N-(o-tolylmethyl)anilino]-N-methylsulfonyl-thiazole-4-carboxamide]	0.0794
COc1cccc(CN(c2ccc(C#N)cc2)c2nc(C(=O)NS(C)(=O)=O)c(Cl)s2)c1 [Example 260, 5-chloro-2-[4-cyano-N-[(3-methoxyphenyl)methyl]anilino]-N-methylsulfonyl-thiazole-4-carboxamide]	0.0398
Cc1sc(N(Cc2ccccc2)c2ccc(S(C)(=O)=O)cc2)nc1C(=O)NS(C)(=O)=O [Example 261, 2-(N-benzyl-4-methylsulfonyl-anilino)-5-methyl-N-methylsulfonyl-thiazole-4-carboxamide]	1.26
Cc1ccccc1CN(c1ccc(C#N)cc1)c1nc(C(=O)NS(C)(=O)=O)c(Br)s1 [Example 264, 5-bromo-2-[4-cyano-N-(o-tolylmethyl)anilino]-N-methylsulfonyl-thiazole-4-carboxamide]	0.158
Cc1cccc(CN(c2ccc(C#N)cc2)c2nc(C(=O)NS(C)(=O)=O)c(Cl)s2)c1 [Example 266, 5-chloro-2-[4-cyano-N-(m-tolylmethyl)anilino]-N-methylsulfonyl-thiazole-4-carboxamide]	0.0316
Cc1ccc(CN(c2ccc(C#N)cc2)c2nc(C(=O)NS(C)(=O)=O)c(Cl)s2)cc1 [Example 267, 5-chloro-2-[4-cyano-N-(p-tolylmethyl)anilino]-N-methylsulfonyl-thiazole-4-carboxamide]	0.0251
Cc1nc(CN(c2ccc(C#N)cc2)c2nc(C(=O)NS(C)(=O)=O)c(Cl)s2)cs1 [Example 278, 5-chloro-2-[4-cyano-N-[(2-methylthiazol-4-yl)methyl]anilino]-N-methylsulfonyl-thiazole-4-carboxamide]	0.794
Cc1sc(N(c2ccc(C#N)cc2F)[C@@H](CO)Cc2ccccc2)nc1C(=O)NS(C)(=O)=O [Example 287, 2-(N-[(1R)-1-benzyl-2-hydroxy-ethyl]-4-cyano-2-fluoro-anilino)-5-methyl-N-methylsulfonyl-thiazole-4-carboxamide]	> 2
Cc1sc(N(CCC2CCOCC2)Cc2ccccc2)nc1C(=O)NS(C)(=O)=O [Example 300, 2-[benzyl(2-tetrahydropyran-4-ylethyl)amino]-5-methyl-N-methylsulfonyl-thiazole-4-carboxamide]	0.398
COc1ccc(CCN(Cc2ccccc2)c2nc(C(=O)NS(C)(=O)=O)c(C)s2)cc1OC [Example 307, 2-[benzyl-[2-(3,4-dimethoxyphenyl)ethyl]amino]-5-methyl-N-methylsulfonyl-thiazole-4-carboxamide]	> 2
Cc1ncsc1CCN(Cc1ccccc1)c1nc(C(=O)NS(C)(=O)=O)c(C)s1 [Example 311, 2-[benzyl-[2-(4-methylthiazol-5-yl)ethyl]amino]-5-methyl-N-methylsulfonyl-thiazole-4-carboxamide]	> 2
Cc1sc(N(CCc2ccc3ccccc3c2)Cc2ccccc2)nc1C(=O)NS(C)(=O)=O [Example 312, 2-[benzyl-[2-(2-naphthyl)ethyl]amino]-5-methyl-N-methylsulfonyl-thiazole-4-carboxamide]	0.631
Cc1sc(N(CCc2cccc3ccccc23)Cc2ccccc2)nc1C(=O)NS(C)(=O)=O [Example 314, 2-[benzyl-[2-(1-naphthyl)ethyl]amino]-5-methyl-N-methylsulfonyl-thiazole-4-carboxamide]	> 2
Cc1sc(N(CCc2c(Cl)cccc2Cl)Cc2ccccc2)nc1C(=O)NS(C)(=O)=O [Example 316, 2-[benzyl-[2-(2,6-dichlorophenyl)ethyl]amino]-5-methyl-N-methylsulfonyl-thiazole-4-carboxamide]	> 2
Cc1ccc(S(=O)(=O)n2cc(CCN(Cc3ccccc3)c3nc(C(=O)NS(C)(=O)=O)c(C)s3)c3ccccc32)cc1 [Example 318, 2-[benzyl-[2-[1-(p-tolylsulfonyl)indol-3-yl]ethyl]amino]-5-methyl-N-methylsulfonyl-thiazole-4-carboxamide]	> 2
Cc1sc(N(CCC2CCN(C(=O)OC(C)(C)C)CC2)Cc2ccccc2)nc1C(=O)NS(C)(=O)=O [Example 319, tert-butyl 4-[2-[benzyl-[5-methyl-4-(methylsulfonylcarbamoyl)thiazol-2-yl]amino]ethyl]piperidine-1-carboxylate]	> 2

Continued, values first:

EC50 [µM]	SMILES
> 2	Cc1sc(N(Cc2ccccc2)Cc2ccccc2)nc1C(=O)NS(C)(=O)=O [Example 288, 2-(dibenzylamino)-5-methyl-N-methylsulfonyl-thiazole-4-carboxamide]
> 2	Cc1sc(N(Cc2ccccc2)Cc2ccc(C#N)cc2)nc1C(=O)NS(C)(=O)=O [Example 289, 2-[benzyl-[(4-cyanophenyl)methyl]amino]-5-methyl-N-methylsulfonyl-thiazole-4-carboxamide]
> 2	Cc1sc(N(Cc2ccccc2)Cc2cccc(C#N)c2)nc1C(=O)NS(C)(=O)=O [Example 290, 2-[benzyl-[(3-cyanophenyl)methyl]amino]-5-methyl-N-methylsulfonyl-thiazole-4-carboxamide]
> 2	Cc1sc(N(Cc2ccccc2)Cc2ccccc2C#N)nc1C(=O)NS(C)(=O)=O [Example 291, 2-[benzyl-[(2-cyanophenyl)methyl]amino]-5-methyl-N-methylsulfonyl-thiazole-4-carboxamide]
> 2	Cc1sc(N(C)Cc2ccccc2)nc1C(=O)NS(C)(=O)=O [Example 292, 2-[benzyl(methyl)amino]-5-methyl-N-methylsulfonyl-thiazole-4-carboxamide]
> 2	Cc1sc(N(Cc2ccccc2)Cc2cccnc2)nc1C(=O)NS(C)(=O)=O [Example 293, 2-[benzyl(3-pyridylmethyl)amino]-5-methyl-N-methylsulfonyl-thiazole-4-carboxamide]
> 2	Cc1sc(N(Cc2ccccc2)Cc2ccccn2)nc1C(=O)NS(C)(=O)=O [Example 295, 2-[benzyl(2-pyridylmethyl)amino]-5-methyl-N-methylsulfonyl-thiazole-4-carboxamide]
> 2	Cc1sc(N(Cc2ccccc2)Cc2ccncc2)nc1C(=O)NS(C)(=O)=O [Example 296, 2-[benzyl(4-pyridylmethyl)amino]-5-methyl-N-methylsulfonyl-thiazole-4-carboxamide]
0.501	Cc1sc(N(CCCc2ccccc2)Cc2ccccc2)nc1C(=O)NS(C)(=O)=O [Example 297, 2-[benzyl(3-phenylpropyl)amino]-5-methyl-N-methylsulfonyl-thiazole-4-carboxamide]
1.26	Cc1sc(N(CCc2ccccc2C#N)Cc2ccccc2)nc1C(=O)NS(C)(=O)=O [Example 302, 2-[benzyl-[2-(2-cyanophenyl)ethyl]amino]-5-methyl-N-methylsulfonyl-thiazole-4-carboxamide]
> 2	Cc1sc(N(Cc2ccccc2)CC2(c3ccccc3)CC2)nc1C(=O)NS(C)(=O)=O [Example 304, 2-[benzyl-[(1-phenylcyclopropyl)methyl]amino]-5-methyl-N-methylsulfonyl-thiazole-4-carboxamide]
> 2	Cc1sc(N(CCn2cccc2)Cc2ccccc2)nc1C(=O)NS(C)(=O)=O [Example 309, 2-[benzyl(2-pyrrol-1-ylethyl)amino]-5-methyl-N-methylsulfonyl-thiazole-4-carboxamide]
0.501	Cc1sc(N(CCc2ccc(S(C)(=O)=O)cc2)Cc2ccccc2)nc1C(=O)NS(C)(=O)=O [Example 317, 2-[benzyl-[2-(4-methylsulfonylphenyl)ethyl]amino]-5-methyl-N-methylsulfonyl-thiazole-4-carboxamide]
